Test results from patent publication US12458643B2, “Antidepressant/anxiolytic drug in which PAC1 receptor antagonist is used” (KAGOSHIMA UNIVERSITY, priority 2020, dated 2025).

What was measured:
normal mice = experiment: Forced swim test in normal mice; format: in vivo, mouse; conditions: normal male C57BL/6J mice, 30 mg/kg i.p., 60 min after administration, 6 min swim
Procedure: The effects of PA-8 and PA-81004 on normal mice were evaluated by a forced swim test (test that exploits the switch of mice caused to swim in an inevitable environment from active escape behavior to a passive state of floating or immobility; in this test, depressive-like behavior is evaluated by placing the mice in an acrylic cylinder of 20 cm in diameter and 25 cm in height filled with water (water temperature: 25° C.) up to a depth of 15 cm, and measuring a passive floating or immobility time).
(§1) Male C57BL/6J mice (8 to 12 weeks old) were acclimatized to a laboratory (illuminance: 200 lx) for 60 minutes. Then, a vehicle (10% DMSO solution; dissolved in saline; n=9), PA-8 (30 mg/kg; n=9) or PA-81004 (30 mg/kg; n=9) was intraperitoneally administered thereto (0.1 mL/10 g). After a lapse of 60 minutes after administration, the mice were forced to swim for 6 minutes, and an immobility time was measured.
The effects of PA-9 and PA-915 on normal mice were evaluated by the forced swim test.
as §1, with “n=10), PA-9” for “n=9), PA-8”, “PA-915” for “PA-81004”

[1] = tested on: chronic social defeat stress mice; experiment: Chronic social defeat stress, sucrose preference test; format: in vivo, mouse; conditions: for sustained effect on reduced sucrose preference: 8, 15, 29, 57 days after single i.p. dose (PA-915 30 mg/kg, ketamine 20 mg/kg), fluoxetine: after withdrawal of 14-day administration
Procedure: In a sucrose preference test, mice are exposed to a sucrose solution and regular water contained in bottles at the same time. Normal mice prefer to drink the sweet sucrose solution, whereas depressed mice drink the sucrose solution at a decreased ratio.
(§2) Chronic social defeat stress was applied at 10 min/day for 10 days (Days 1 to 10) to male C57BL/6N mice (8 to 12 weeks old) each reared in isolation for 10 days or longer. On Day 11, SPAT was conducted, and susceptible mice were selected. A vehicle (10% DMSO solution; dissolved in saline; n=11) or PA-8 (30 mg/kg; n=9) was intraperitoneally administered once daily (0.1 mL/10 g) for 7 consecutive days from day 12. The sucrose preference test was conducted (a sucrose preference ratio was studied for 17 hours) 30 minutes after the final administration on the 7th day (Day 18). Mice reared for 10 days in a home cage without chronic social defeat stress load were used as a control (n=10). The data was indicated by mean±standard error. *P<0.05 (One-way ANOVA followed by Tukey-Kramer test).
as §2, with “PA-9” for “PA-8”, “n=9 or 8)” for “n=9)”, “after administration on” for “after”, “first day (Day 12) and” for “final administration”, “18). […]” for “18).”
Chronic social defeat stress was applied at 10 min/day for 10 days (Days 1 to 10) to male C57BL/6N mice (8 to 12 weeks old) each reared in isolation for 10 days or longer. On Day 11, SPAT was conducted, and susceptible mice were selected. On the next day (Day 12), a vehicle (10% DMSO solution; dissolved in saline; n=11) or PA-915 (30 mg/kg; n=10) was intraperitoneally administered (0.1 mL/10 g) to the mice. The sucrose preference test was conducted (a sucrose preference ratio was studied for 17 hours) from 30 minutes after administration. Mice reared for 10 days in a home cage without chronic social defeat stress load were used as a control (n=15). The data was indicated by mean±standard error. *P<0.05 (One-way ANOVA followed by Tukey-Kramer test).
Chronic social defeat stress was applied at 10 min/day for 10 days (Days 1 to 10) to male C57BL/6N mice (8 to 12 weeks old) each reared in isolation for 10 days or longer. On Day 11, the social preference or avoidance test (SPAT) was conducted, and susceptible mice were selected. On the next day (Day 12), a vehicle (V: 10% DMSO solution; dissolved in saline; n=17), PA-915 (P: 30 mg/kg; n=15), ketamine (K: 20 mg/kg; n=15) or fluoxetine (F: 20 mg/kg; n=16, n=15 only on Day 69) was intraperitoneally administered (0.1 mL/10 g) to the mice. The sucrose preference test was conducted 24 hours later (Day 13), 8 days later (Day 20), 15 days later (Day 27), 29 days later (Day 41), and 57 days later (Day 69) (a sucrose preference ratio was studied on each day from 5:00 p.m. of the previous day to 10:00 a.m. of the day). However, for the fluoxetine administration group, consecutive administration (F: 20 mg/kg, intraperitoneal administration (0.1 mL/10 g)) was performed for 14 days from Day 12 to Day 26. Mice reared for 10 days in a home cage without chronic social defeat stress load were used as a control (n=22). The data was indicated by mean±standard error. **P<0.01; *P<0.05 (One-way ANOVA followed by Tukey-Kramer test). […]

[2] = chronic social defeat stress, 30 mg/kg i.p. once daily for 7 days, test 30 min after final administration (Day 18)
[3] = Example 19, single i.p. dose (PA-915 30 mg/kg, ketamine 20 mg/kg, fluoxetine 20 mg/kg), 24 hours later (Day 13)

SMILES: C=CCOc1ccc(C2CC(=O)Nc3nc(N)[nH]c(=O)c32)cc1OC (centres unmarked) [PA-8]
- pharmacological action in forced swim test (immobility time) (normal mice): no pharmacological action
- effect on reduced sucrose preference [1, 2]: improving effect

SMILES: O=C(NCCc1c[nH]cn1)C1CC(=O)N(c2n[nH]c3ccccc23)C1 (centres unmarked) [PA-9]
- pharmacological action in forced swim test (immobility time) (normal mice): no pharmacological action
- effect on reduced sucrose preference [1, 2]: its effect was also sustained after repeated administration for 7 days
- effect on reduced sucrose preference ([1]; chronic social defeat stress, 30 mg/kg i.p. single dose (Day 12), test from 30 min after administration, 17 hours): improved sucrose preference even by single-dose administration

SMILES: Nc1nc2c(c(=O)[nH]1)C(c1cccc(OC(F)(F)F)c1)CC(=O)N2 (centres unmarked) [PA-81004, 2-Amino-5-(3-trifluoromethoxyphenyl)-5,8-dihydro-3H,6H-pyrido[2,3-d]pyrimidine-4,7-dione]
- pharmacological action in forced swim test (immobility time) (normal mice): no pharmacological action

SMILES: CNCCC(Oc1ccc(C(F)(F)F)cc1)c1ccccc1 (centres unmarked) [fluoxetine]
- sustained effect on reduced sucrose preference ([1]; Example 19): its effectiveness was not maintained after drug withdrawal
- effect on reduced sucrose preference ([1]; Example 19, fluoxetine 20 mg/kg i.p. 14-day consecutive administration (Day 12 to Day 26)): improved reduced sucrose preference
- effect on reduced sucrose preference [1, 3]: did not improve sucrose preference

SMILES: CNC1(c2ccccc2Cl)CCCCC1=O (centres unmarked) [ketamine]
- sustained effect on reduced sucrose preference ([1]; Example 19): maintained its effectiveness 8, 15, 29, and 57 days later
- effect on reduced sucrose preference [1, 3]: improved reduced sucrose preference in a fast-acting manner
